These results are taken from patent publication US8486891B2, “Nasal calcitonin formulations containing chlorobutanol” (Par Pharmaceutical, Inc., priority 2003, dated 2013).

For series [1] the following is noted: ingredient as supplied (EP grade); cited from earlier work.
Another series deals with rat trachea. Put plainly: Inhibition of ciliary beating frequency of rat trachea. The format is cell-based. The source says: The prior art teaches away from the use of chlorobutanol stating that at 0.6% concentration, the chlorobutanol caused more than 50% inhibition of ciliary beating frequency of rat trachea.
Series [2] deals with respiratory mucosal tissue. Particulars: in vitro exposure; Berg et al. 1994; cited from earlier work.
The subject of another series is frog palate. To be noted: ex vivo frog palate; Braga et al. 1992; cited from earlier work.
The conditions of series [3]: healthy volunteers, decongestant nasal spray containing the preservative; cited from earlier work.

In the case of “Salmon Calcitonin [Salmon Calcitonin, EP]”, the Potency result in series [1] was “Potency of 6236 IU/mg”.

For `CC(C)(O)C(Cl)(Cl)Cl` [chlorobutanol], the “effect on ciliary beating frequency of rat trachea” value with rat trachea (chlorobutanol concentration less than 0.4%) is “greatly reduced”; in the series on rat trachea (chlorobutanol concentration of around 0.25%) it was “totally eliminated”.

Regarding benzalkonium chloride, in series [2], the “morphological effect on respiratory mucosal tissue” value was “severe morphological alterations”. Besides, the mucocilary transport velocity result in the series with frog palate is on record as “significant slowing”. For the same compound, the effect on rhinitis entry in series [3] is “aggravate rhinitis”.
